ChEMBL document CHEMBL1124976, “An initial three-component pharmacophore for specific serotonin-3 receptor ligands” (J Med Chem, 1990)

Experiments:
[1] = molecular target: T1, 5-hydroxytryptamine receptor 3B (Mus musculus, UniProt Q9JHJ5); assay: In vitro binding affinity for the 5-hydroxytryptamine 3 receptor was determined with NG-108-15 mouse neuroblastoma-glioma cells
T1 sequence (Q9JHJ5 whole entry): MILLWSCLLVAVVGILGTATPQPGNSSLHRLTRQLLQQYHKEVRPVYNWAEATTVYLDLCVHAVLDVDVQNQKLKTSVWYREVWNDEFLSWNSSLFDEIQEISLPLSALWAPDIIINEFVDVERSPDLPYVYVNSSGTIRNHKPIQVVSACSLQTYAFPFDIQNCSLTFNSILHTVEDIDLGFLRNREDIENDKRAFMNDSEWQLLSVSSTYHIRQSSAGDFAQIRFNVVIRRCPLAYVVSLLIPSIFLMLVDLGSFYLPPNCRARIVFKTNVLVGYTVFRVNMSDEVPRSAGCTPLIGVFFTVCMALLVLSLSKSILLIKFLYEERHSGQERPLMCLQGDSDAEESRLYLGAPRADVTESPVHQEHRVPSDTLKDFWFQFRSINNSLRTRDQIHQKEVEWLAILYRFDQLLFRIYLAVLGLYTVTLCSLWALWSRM

[2] = molecular target: 5-hydroxytryptamine receptor 3A (Mus musculus) (UniProt P23979); assay: In vitro binding affinity for the 5-hydroxytryptamine 3 receptor was determined with NG-108-15 mouse neuroblastoma-glioma cells
[3] = molecular target: Serotonin 3 (5-HT3) receptor (Rattus norvegicus) (UniProt P35563+Q9JJ16); assay: Tested for inhibition of Bezold-Jarisch (B-J) reflex mediated by 5-hydroxytryptamine 3 receptor in rats after intravenous administration (2.0 ug/kg); type: functional, organism-based

Sequence of 5-hydroxytryptamine receptor 3A (Mus musculus) (P23979 whole entry, looked up): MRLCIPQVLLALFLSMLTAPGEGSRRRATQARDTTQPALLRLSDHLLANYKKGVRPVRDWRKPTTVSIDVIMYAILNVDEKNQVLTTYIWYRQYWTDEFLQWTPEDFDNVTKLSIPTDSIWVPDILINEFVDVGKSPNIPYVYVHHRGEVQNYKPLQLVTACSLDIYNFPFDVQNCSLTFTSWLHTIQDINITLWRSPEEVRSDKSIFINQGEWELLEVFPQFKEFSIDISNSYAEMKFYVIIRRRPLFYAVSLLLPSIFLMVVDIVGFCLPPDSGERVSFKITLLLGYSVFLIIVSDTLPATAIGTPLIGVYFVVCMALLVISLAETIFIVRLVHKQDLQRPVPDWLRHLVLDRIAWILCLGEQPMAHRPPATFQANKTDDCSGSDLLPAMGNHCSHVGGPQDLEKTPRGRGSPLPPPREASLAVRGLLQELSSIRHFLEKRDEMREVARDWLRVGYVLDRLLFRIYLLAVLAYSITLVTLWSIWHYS

Structure (SMILES)	Ki [2] [nM]	inhibition [3] [%]	Ki [1] [nM]
CN(Cc1nc(-c2c[nH]c3ccccc23)cs1)C(=N)N			> 1
Cc1nc[nH]c1Cc1nc(-c2c[nH]c3ccccc23)cs1			10
N=C(N)NCc1ccccn1			82
COc1cc(N)c(Cl)cc1C(=O)NC1CN2CCC1CC2 (stereo not drawn)		84	
Cc1csc(CNC(=N)N)n1			116

Second part, led by results:

Ki [2] [nM]	inhibition [3] [%]	Structure (SMILES)	Ki [1] [nM]
3.3	51	N=C(N)NCc1nc(-c2c[nH]c3ccccc23)cs1	
	43	Cc1nccn1CC1CCc2c(c3ccccc3n2C)C1=O (stereo not drawn)	
